Measurements reported in ChEMBL document CHEMBL3400014, “Cytotoxic acyl amides from the soil fungus Gymnascella dankaliensis” (Bioorg Med Chem, 2015).
Active and inactive are the calls of the source. No cut-off for these calls is given here.

The compounds below were run on L5178Y (assay: Cytotoxicity against mouse L5178Y cells by MTT assay).
Type: functional, cell-based
For `CC(/C=C/C(=O)NC(Cc1ccc(O)cc1)C(=O)O)=C\[C@H](C)CC(=O)O` (mixture of isomers), the Activity was “inactive”. In the case of `CCCCCC[C@@H](C)/C=C(C)/C=C/C(=O)N[C@H]1C[C@]2(OC1O)[C@@H]1O[C@@H]1C(O)[C@@H]1O[C@@H]12` (some centres not stated), the Activity is reported as “inactive”. With `CC(/C=C/C(=O)NC(Cc1ccc(O)cc1)C(=O)O)=C\[C@H](C)CCCCCCO` (mixture of isomers) the Activity was “inactive”. For `CC(/C=C/C(=O)NC(Cc1ccc(O)cc1)C(=O)O)=C\[C@H](C)CCCCCC(=O)O` (mixture of isomers), the Activity was “inactive”. With `CCCCCC[C@@H](C)/C=C(C)/C=C/C(=O)N[C@H]1C[C@]2(OC1O)[C@@H]1O[C@@H]1C(=O)[C@@H]1O[C@@H]12` (some centres not stated) the IC50 was 580 nM. In the case of `CCCCCC[C@@H](C)/C=C(C)/C=C/C(N)=O`, the Activity is reported as “inactive”. With `CCCCCC[C@@H](C)/C=C(C)/C=C/C(=O)N[C@H]1C[C@]2(OC1O)[C@@H]1O[C@@H]1C(O)(CC(C)=O)[C@@H]1O[C@@H]12` (some centres not stated) the Activity was “inactive”. Compound `CCCCCC[C@@H](C)/C=C(C)/C=C/C(=O)N[C@H]1C[C@]2(C=C(Cl)C(=O)[C@H](Cl)[C@H]2O)O[C@H]1OC` has an IC50 of 5800 nM. Compound `CCCCCC[C@@H](C)/C=C(C)/C=C/C(=O)N[C@H]1CC2(C=C(Cl)C(=O)C(Cl)=C2)OC1O` (some centres not stated) has an IC50 of 640 nM. `CC(/C=C/C(=O)NC(CO)Cc1ccc(O)cc1)=C\C(C)CC(=O)O` (mixture of isomers) was tested, and the Activity was “inactive”. With `CCCCCC[C@@H](C)/C=C(C)/C=C/C(=O)N[C@H]1C[C@]2(O[C@H]1OC)[C@@H]1O[C@@H]1C(=O)[C@@H]1O[C@@H]12` the IC50 was 440 nM. `CC(/C=C/C(N)=O)=C\[C@H](C)CC(=O)O` was tested, and the Activity was “inactive”.
